In data set [1] the test system is Mus musculus. The data set can be described thus: Anticonvulsant activity in Mus musculus albino (mouse) assessed as decrease in pentylenetetrazole-induced total seizure time at 15 mg/kg, ip administered 30 min followed by pentylenetetrazole induction measured for 30 min (reference value: 9.9 +/- 1.3 secs). The conditions noted are these: route intraperitoneal. The format is functional.

Data set [2] has as its system Mus musculus. The data set can be described thus: Anticonvulsant activity in Mus musculus albino (mouse) assessed as increase in onset of pentylenetetrazole-induced seizure at 15 mg/kg, ip administered 30 min followed by pentylenetetrazole induction measured for 30 min (reference value: 184 +/- 32 secs). The data set is classed as functional. The conditions noted are these: route intraperitoneal.

Data set [3] relates to Mus musculus. The data set can be described thus: Neurotoxicity in Mus musculus albino (mouse) assessed as minimal motor impairment at 15 mg/kg, ip measured for 180 secs by rotorod test. The conditions noted are these: in vivo, 0.05 h. The format is toxicity, organism-based. Set-up: dose 15 mg/kg, route intraperitoneal. (In general: In the rotarod test animals must keep their balance on a rotating rod.)

Data set [4] relates to Mus musculus. The data set can be described thus: Anticonvulsant activity in pentylenetetrazole-induced Mus musculus albino (mouse) seizure model assessed as death time at 15 mg/kg, ip administered 30 min followed by pentylenetetrazole induction measured for 30 min (reference value: 416 +/- 58.2 secs). The data set is classed as functional. The conditions noted are these: route intraperitoneal.

Data set [5] has as its system Mus musculus. The data set can be described thus: Anticonvulsant activity in pentylenetetrazole-induced Mus musculus albino (mouse) seizure model assessed as survival at 15 mg/kg, ip administered 30 min followed by pentylenetetrazole induction measured for 30 min relative to control. The conditions noted are these: 0.5 h, route intraperitoneal. The format is functional.

For data set [6], the system named is Mus musculus. The data set can be described thus: Anticonvulsant activity in Mus musculus albino (mouse) assessed as protection against pentylenetetrazole-induced seizure at 15 mg/kg, ip administered 30 min followed by pentylenetetrazole induction measured for 30 min relative to control. The data set is classed as functional. The conditions noted are these: route intraperitoneal.

Consider `CCC1(c2ccccc2)C(=O)NC(=O)NC1=O` [PHENOBARBITAL], for which the Time with Mus musculus [1] amounted to 2.2 s; in the data set on Mus musculus [2], 1088 s; in the data set on Mus musculus [4], 1800 s. In addition, the figures for the Activity entry with Mus musculus [3] and in the data set with Mus musculus [6] were “Non-toxic” and 50%, respectively. In addition, the survival at 15 mg/kg in the data set on Mus musculus [5] stood at 100%.

(Values after ChEMBL document CHEMBL3045472, “Synthesis and evaluation of some novel methylene-bridged aryl semicarbazones as potential anticonvulsant agents” (Med Chem Res, 2012).)
